Source: PubChem BioAssay (NCI)
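The compound was tested at five concentrations on cells cultured in 96-well plates, with a 48-hour exposure period. TGI marks complete inhibition of growth.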

Columns and labels:
Assay in all cases: NCI tumour cell line growth inhibition, 48 h
786-0 renal = system: 786-0 renal
DU-145 prostate = system: DU-145 prostate
UACC-62 melanoma = system: UACC-62 melanoma
ACHN renal = system: ACHN renal
TK-10 renal = system: TK-10 renal
UO-31 renal = system: UO-31 renal
SN12C renal = system: SN12C renal
CAKI-1 renal = system: CAKI-1 renal
MALME-3M melanoma = system: MALME-3M melanoma
U251 CNS = system: U251 CNS
OVCAR-3 ovarian = system: OVCAR-3 ovarian
SK-MEL-2 melanoma = system: SK-MEL-2 melanoma
HT29 colon = system: HT29 colon
HCC-2998 colon = system: HCC-2998 colon
A498 renal = system: A498 renal
SF-539 CNS = system: SF-539 CNS
MCF7 breast = system: MCF7 breast
HCT-116 colon = system: HCT-116 colon
KM12 colon = system: KM12 colon
RPMI-8226 leukemia = system: RPMI-8226 leukemia
M14 melanoma = system: M14 melanoma
PC-3 prostate = system: PC-3 prostate
SW-620 colon = system: SW-620 colon
EKVX NSCLC = system: EKVX NSCLC
SK-MEL-28 melanoma = system: SK-MEL-28 melanoma
NCI-H23 lung = system: NCI-H23 lung
COLO 205 colon = system: COLO 205 colon
OVCAR-8 ovarian = system: OVCAR-8 ovarian
SK-MEL-5 melanoma = system: SK-MEL-5 melanoma
SK-OV-3 ovarian = system: SK-OV-3 ovarian
A549 NSCLC = system: A549 NSCLC
MOLT-4 leukemia = system: MOLT-4 leukemia
MDA-MB-435 = system: MDA-MB-435
BT-549 breast = system: BT-549 breast
SNB-19 CNS = system: SNB-19 CNS
MDA-N = system: MDA-N
OVCAR-5 ovarian = system: OVCAR-5 ovarian
RXF 393 renal = system: RXF 393 renal
HCT-15 colon = system: HCT-15 colon
MDA-MB-231 breast = system: MDA-MB-231 breast
HL-60(TB) leukemia = system: HL-60(TB) leukemia
SF-295 CNS = system: SF-295 CNS
NCI-H460 lung = system: NCI-H460 lung
LOX IMVI melanoma = system: LOX IMVI melanoma
SF-268 CNS = system: SF-268 CNS
NCI/ADR-RES ovarian = system: NCI/ADR-RES ovarian
HS 578T breast = system: HS 578T breast
NCI-H226 lung = system: NCI-H226 lung
IGROV1 ovarian = system: IGROV1 ovarian
CCRF-CEM leukemia = system: CCRF-CEM leukemia
SNB-75 CNS = system: SNB-75 CNS
K-562 leukemia = system: K-562 leukemia
NCI-H522 lung = system: NCI-H522 lung
UACC-257 melanoma = system: UACC-257 melanoma
SR leukemia = system: SR leukemia
T-47D breast = system: T-47D breast
HOP-92 NSCLC = system: HOP-92 NSCLC
OVCAR-4 ovarian = system: OVCAR-4 ovarian
HOP-62 NSCLC = system: HOP-62 NSCLC

Measured: TGI

Cc1ccc(S(=O)(=O)Oc2nc3ccccc3nc2OS(=O)(=O)c2ccc(C)cc2)cc1
56.1 µM: SK-MEL-5 melanoma
35 µM: MALME-3M melanoma
49.9 µM: NCI-H522 lung
82.4 µM: CAKI-1 renal
not listed: T-47D breast | HOP-92 NSCLC | OVCAR-4 ovarian | HOP-62 NSCLC
> 100 µM: all other assays above

COc1cc(C2c3cc4c(cc3OC(NNS(=O)(=O)c3ccc(C)cc3)C2C)OCO4)cc(OC)c1O (configuration not stated)
30.8 µM: IGROV1 ovarian
49.5 µM: MOLT-4 leukemia
54 µM: RXF 393 renal
42.9 µM: 786-0 renal
14 µM: PC-3 prostate
25 µM: MALME-3M melanoma | SK-MEL-5 melanoma
52.3 µM: LOX IMVI melanoma
39.9 µM: TK-10 renal
40.9 µM: UACC-62 melanoma
41.9 µM: RPMI-8226 leukemia
58.2 µM: M14 melanoma
31.4 µM: SF-539 CNS
45.7 µM: K-562 leukemia
17.7 µM: SF-295 CNS
35.4 µM: HL-60(TB) leukemia
33.6 µM: ACHN renal
36.1 µM: MCF7 breast
49.8 µM: EKVX NSCLC
22.6 µM: HCT-15 colon
57.5 µM: MDA-MB-231 breast
36.5 µM: KM12 colon
12.4 µM: MDA-MB-435
22.7 µM: SNB-75 CNS
76.4 µM: NCI-H23 lung
60.2 µM: NCI-H226 lung
39.4 µM: HOP-62 NSCLC
38.4 µM: UACC-257 melanoma
49.6 µM: HT29 colon
25.2 µM: A498 renal
55.3 µM: HS 578T breast
56.4 µM: SNB-19 CNS
69.1 µM: NCI-H522 lung
27.8 µM: U251 CNS
51.4 µM: MDA-N
32.8 µM: CAKI-1 renal
50 µM: OVCAR-3 ovarian
45.1 µM: NCI/ADR-RES ovarian
43.5 µM: COLO 205 colon
79.2 µM: SK-OV-3 ovarian
54.8 µM: HOP-92 NSCLC
40.1 µM: OVCAR-4 ovarian
17.5 µM: NCI-H460 lung
not listed: UO-31 renal | SK-MEL-2 melanoma | BT-549 breast | SR leukemia
> 100 µM: all other assays above

CN1C(=O)C2(C=CC(O)CC2)c2ccccc21 (configuration not stated)
not listed: MALME-3M melanoma | SF-539 CNS | BT-549 breast | RXF 393 renal | HS 578T breast
> 100 µM: all other assays above

CC(C)NC(=O)N(Nc1ccccc1)C(C)(C)C
not listed: DU-145 prostate | RPMI-8226 leukemia | MDA-MB-435 | SF-268 CNS | NCI-H522 lung | T-47D breast
> 100 µM: all other assays above
